Source: patent publication EP4782453A1 (Beyang Therapeutics Co., Ltd., priority 2023, dated 2025)
Where two headings read alike, the source gives them in different places.

Target: T1, Menin-MLL (Homo sapiens, UniProt O00255)
T1 construct: His-Menin (M1-L615 end); purchased BIORTUS BP9210
T1 sequence (O00255 1-615 isoform O00255-1): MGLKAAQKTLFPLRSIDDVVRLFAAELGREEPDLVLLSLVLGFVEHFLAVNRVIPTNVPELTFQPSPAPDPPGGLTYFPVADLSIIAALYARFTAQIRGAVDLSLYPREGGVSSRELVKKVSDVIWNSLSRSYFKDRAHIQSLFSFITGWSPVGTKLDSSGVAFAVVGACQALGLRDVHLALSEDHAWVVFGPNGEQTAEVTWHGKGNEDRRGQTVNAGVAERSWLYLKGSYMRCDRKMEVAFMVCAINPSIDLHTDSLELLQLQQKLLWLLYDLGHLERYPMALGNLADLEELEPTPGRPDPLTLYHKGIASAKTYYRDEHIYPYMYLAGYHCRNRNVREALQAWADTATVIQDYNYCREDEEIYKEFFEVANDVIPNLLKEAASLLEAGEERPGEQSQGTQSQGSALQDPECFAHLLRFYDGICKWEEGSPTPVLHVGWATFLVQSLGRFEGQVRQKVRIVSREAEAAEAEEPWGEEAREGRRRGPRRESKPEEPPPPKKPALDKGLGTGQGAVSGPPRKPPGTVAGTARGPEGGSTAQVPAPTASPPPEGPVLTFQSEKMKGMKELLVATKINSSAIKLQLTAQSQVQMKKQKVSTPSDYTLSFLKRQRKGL
Test: Inhibitory activity against Menin-MLL binding (fluorescence polarization)
Conditions: 150 nM His-Menin, 15 nM FITC-MLL, 25°C for 60 min
Outline: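 Fluorescence polarization competition: compound and 150 nM His-tagged menin (residues M1-L615) sit 15 min at 25 °C in pH 7.5 HEPES buffer with NaCl, DTT and BSA; 15 nM FITC-labelled MLL peptide then binds for 60 min. IC50 fitted sigmoidally from mP values, duplicate wells.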

[1] = fluorescence polarization, read-out: Menin-MLL IC50

Structure (SMILES)	IC50 [1]	IC50 (Menin-MLL IC50, fluorescence polarization)
CCN(C(=O)c1cc(F)ccc1-c1cc(C2CN([C@H](CCCN3CCN(C)CC3)C(C)C)C2)cn2c(C)nnc12)C(C)C [Example 360-1, N-ethyl-5-fluoro-2-(3-methyl-6-{1-[(3R)-2-methyl-6-(4-methylpiperazin-1-yl)hexan-3-yl]azacyclobutan-3-yl}-[1,2,4]triazolo[4,3-a]pyridin-8-yl)-N-(isopropyl)benzamide]	83 nM	
CCN(C(=O)c1cc(F)ccc1-c1cc(C2CN([C@@H](CCCN3CCN(C)CC3)C(C)C)C2)cn2c(C)nnc12)C(C)C [Example 360-2, N-ethyl-5-fluoro-2-(3-methyl-6-{1-[(3S)-2-methyl-6-(4-methylpiperazin-1-yl)hexan-3-yl]azacyclobutan-3-yl}-[1,2,4]triazolo[4,3-a]pyridin-8-yl)-N-(isopropyl)benzamide]	2690 nM	
Cc1nc(F)c2c(-c3ccc(F)cc3C(=O)N3CCOC[C@H]3C)cc(C3CN([C@@H](CN4CCN(C(=O)OC(C)(C)C)CC4)C(C)C)C3)cn12 [Example 366-1, 4-[(2R)-2-[3-(1-fluoro-8-{4-fluoro-2-[(3R)-3-methylmorpholin-4-carbonyl]phenyl}-3-methylimidazo[1,5-a]pyridin-6-yl)azacyclobutan-1-yl]-3-methylbutyl]piperazin-1-tert-butyl carboxylate]	1150 nM	
Cc1nc(F)c2c(-c3ccc(F)cc3C(=O)N3CCOC[C@H]3C)cc(C3CN([C@H](CN4CCN(C(=O)OC(C)(C)C)CC4)C(C)C)C3)cn12 [Example 366-2, 4-[(2S)-2-[3-(1-fluoro-8-{4-fluoro-2-[(3R)-3-methylmorpholin-4-carbonyl]phenyl}-3-methylimidazo[1,5-a]pyridin-6-yl)azacyclobutan-1-yl]-3-methylbutyl]piperazin-1-tert-butyl carboxylate]	38.5 nM	
Cc1nc(F)c2c(-c3ccc(F)cc3C(=O)N3CCOC[C@H]3C)cc(C3CN([C@@H](CN4CCNCC4)C(C)C)C3)cn12 [Example 367-1, (3R)-4-[5-fluoro-2-(1-fluoro-3-methyl-6-{1-[(2R)-3-methyl-1-(piperazin-1-yl)butan-2-yl]azacyclobutan-3-yl}imidazo[1,5-a]pyridin-8-yl)benzoyl]-3-methylmorpholine]	3.9 nM	
Cc1nc(F)c2c(-c3ccc(F)cc3C(=O)N3CCOC[C@H]3C)cc(C3CN([C@H](CN4CCNCC4)C(C)C)C3)cn12 [Example 367-2, (3R)-4-[5-fluoro-2-(1-fluoro-3-methyl-6-{1-[(2S)-3-methyl-1-(piperazin-1-yl)butan-2-yl]azacyclobutan-3-yl}imidazo[1,5-a]pyridin-8-yl)benzoyl]-3-methylmorpholine]	4 nM	
Cc1nc(F)c2c(-c3ccc(F)cc3C(=O)N3CCOC[C@H]3C)cc(C3CN([C@@H](CN4CCN(C)CC4)C(C)C)C3)cn12 [Example 368-1, (3R)-4-[5-fluoro-2-(1-fluoro-3-methyl-6-{1-[(2R)-3-methyl-1-(4-methylpiperazin-1-yl)butan-2-yl]azacyclobutan-3-yl}imidazo[1,5-a]pyridin-8-yl)benzoyl]-3-methylmorpholine]	23 nM	
Cc1nc(F)c2c(-c3ccc(F)cc3C(=O)N3CCOC[C@H]3C)cc(C3CN(C(CC[C@@H]4COCCN4C)C(C)C)C3)cn12 (stereo partly drawn) [Example 372, (3R)-4-{5-fluoro-2-[1-fluoro-3-methyl-6-(1-{4-methyl-1-[(3R)-4-methylmorpholin-3-yl]pentan-3-yl}azacyclobutan-3-yl)imidazo[1,5-a]pyridin-8-yl]benzoyl}-3-methylmorpholine]	32 nM	
Cc1nc(F)c2c(-c3ccc(F)cc3C(=O)N3CCOC[C@H]3C)cc(C3CN(C(CC[C@H]4COCCN4C)C(C)C)C3)cn12 (stereo partly drawn) [Example 374, (3R)-4-{5-fluoro-2-[1-fluoro-3-methyl-6-(1-{4-methyl-1-[(3S)-4-methylmorpholin-3-yl]pentan-3-yl}azacyclobutan-3-yl)imidazo[1,5-a]pyridin-8-yl]benzoyl}-3-methylmorpholine]	26 nM	
CCN(C(=O)c1cc(F)ccc1-c1cc(C2CN([C@H](CCCN3CCOCC3)C(C)C)C2)cn2c(C)ncc12)C(C)C [Example 375, N-ethyl-5-fluoro-2-(3-methyl-6-{1-[(3R)-2-methyl-6-(morpholin-4-yl)hexan-3-yl]azacyclobutan-3-yl}imidazo[1,5-a]pyridin-8-yl)-N-(isopropyl)benzamide]	3.9 nM	
CCN(C(=O)c1cc(F)ccc1-c1cc(C2CN([C@H](CCCN3CCN(C4CC4)CC3)C(C)C)C2)cn2c(C)ncc12)C(C)C [Example 376]	3.1 nM	
CC(=O)N1CC2CCC(C1)N2CCC[C@H](C(C)C)N1CC(c2cc(-c3ccc(F)cc3C(=O)N3CCOC[C@H]3C)c3cnn(C)c3c2)C1 [Example 383]	17 nM	
CC(=O)N1CC2CC(C1)N2CCC[C@H](C(C)C)N1CC(c2cc(-c3ccc(F)cc3C(=O)N3CCOC[C@H]3C)c3cnn(C)c3c2)C1 [Example 386]	20 nM	
CCN(C(=O)c1cc(F)ccc1-c1cc(C2CN([C@H](CCCN3CC4(COC4)C3)C(C)C)C2)cn2c(C)ncc12)C(C)C [Example 388]	2.1 nM	
CCN(C(=O)c1cc(F)ccc1-c1cc(C2CN([C@H](CCCN3CC4CC(C3)N4C)C(C)C)C2)cn2c(C)ncc12)C(C)C [Example 392]	2 nM	
CCN1CCN(CCC[C@@H](C(C)C)N2CC(c3cc(-c4ccc(F)cc4C(=O)N(CC)C(C)C)c4cnn(C)c4c3)C2)CC1 [Example 394-1, N-ethyl-2-(6-{1-[(3S)-6-(4-ethylpiperazin-1-yl)-2-methylhexan-3-yl]azacyclobutan-3-yl}-1-methyl-1H-indazol-4-yl)-5-fluoro-N-(isopropyl)benzamide]	188 nM	
CCN1CCN(CCC[C@H](C(C)C)N2CC(c3cc(-c4ccc(F)cc4C(=O)N(CC)C(C)C)c4cnn(C)c4c3)C2)CC1 [Example 394-2, N-ethyl-2-(6-{1-[(3R)-6-(4-ethylpiperazin-1-yl)-2-methylhexan-3-yl]azacyclobutan-3-yl}-1-methyl-1H-indazol-4-yl)-5-fluoro-N-(isopropyl)benzamide]	3.2 nM	
CCN(C(=O)c1cc(F)ccc1-c1cc(C2CN([C@H](CCCN3CCN(S(C)(=O)=O)CC3)C(C)C)C2)cn2c(C)ncc12)C(C)C [Example 397]	4.2 nM	
CCN(C(=O)c1cc(F)ccc1-c1cc(C2CN([C@@H](CCCN3CCC(OC)CC3)C(C)C)C2)cc2c1cnn2C)C(C)C [Example 399-1, N-ethyl-5-fluoro-2-(6-{1-[(3S)-6-(4-methoxypiperidin-1-yl)-2-methylhexan-3-yl]azacyclobutan-3-yl}-1-methyl-1H-indazol-4-yl)-N-(isopropyl)benzamide]	110 nM	
CCN(C(=O)c1cc(F)ccc1-c1cc(C2CN([C@@H](CCCN3CCN(CCO)CC3)C(C)C)C2)cc2c1cnn2C)C(C)C [Example 400-1]	220 nM	
CCN(C(=O)c1cc(F)ccc1-c1cc(C2CN([C@@H](CCCN3CCC(OCCO)CC3)C(C)C)C2)cc2c1cnn2C)C(C)C [Example 401-1]	130 nM	
CCN(C(=O)c1cc(F)ccc1-c1cc(C2CN([C@@H](CN3CCN(C)CC3)C(C)C)C2)cc2c1cnn2C)C(C)C [Example 402-1, N-ethyl-5-fluoro-2-(1-methyl-6-{1-[(2R)-3-methyl-1-(4-methylpiperazin-1-yl)butan-2-yl]azacyclobutan-3-yl}-1H-indazol-4-yl)-N-(isopropyl)benzamide]	110 nM	
CCN(C(=O)c1cc(F)ccc1-c1cc(C2CN([C@H](CCCN3CCN(C(C)=O)CC3)C(C)C)C2)cc2c1cnn2C)C(C)C [Example 407]	33 nM	
CCN(C(=O)c1cc(F)ccc1-c1cc(C2CN(C(COC)C(C)C)C2)cn2c(C)ncc12)C(C)C (stereo not shown) [Example 414, N-ethyl-5-fluoro-2-{6-[1-(1-methoxy-3-methylbutan-2-yl)azacyclobutan-3-yl]-3-methylimidazo[1,5-a]pyridin-8-yl}-N-(isopropyl)benzamide]	11.8 nM	
CCN(C(=O)c1cc(F)ccc1-n1c(=O)n(CC2CN(C(CCCN3CCN(CCO)CC3)C(C)C)C2)c2c(C)cncc21)C(C)C (stereo not shown) [Example 415, N-ethyl-5-fluoro-2-{1-[(1-{6-[4-(2-hydroxyethyl)piperazin-1-yl]-2-methylhexan-3-yl}azacyclobutan-3-yl)methyl]-7-methyl-2-oxo-1H,2H,3H-imidazo[4,5-c]pyridin-3-yl} N-(isopropyl)benzamide]		160 nM
CCN(C(=O)c1cc(F)ccc1-c1cc(C2CN([C@@H](CN3CCN(CCO)CC3)C(C)C)C2)cc2c1cnn2C)C(C)C [Example 416-1, N-ethyl-5-fluoro-2-(6-{1-[(2R)-1-[4-(2-hydroxyethyl)piperazin-1-yl]-3-methylbutan-2-yl]azacyclobutan-3-yl}-1-methyl-1H-indazol-4-yl)-N-(isopropyl)benzamide]	150 nM	
CCN(C(=O)c1cc(F)ccc1-c1cc(C2CN([C@H](CN3CCN(C(C)=O)CC3)C(C)C)C2)cc2c1cnn2C)C(C)C [Example 417]	62 nM	
CCN1CCN(C[C@H](C(C)C)N2CC(c3cc(-c4ccc(F)cc4C(=O)N(CC)C(C)C)c4cnn(C)c4c3)C2)CC1 [Example 418]	6.3 nM	
